According to article PMC8591201, “Anti-Tumor Activity of AZD4547 Against NTRK1 Fusion Positive Cancer Cells Through Inhibition of NTRKs” (Frontiers in Oncology, 2021):

Columns and labels:
Assay in all cases: cells
Parameters in all cases: Anti-proliferation, 10-point dose response, CellTiter-Glo luminescence (MTT stated for KM12(Luc)), GI50 fitted in Prism
HTH-7 = details: KM12-Luc, 72 h, read-out: GI50 (µM) a
Experimental: (§1) To obtain the GI50 value of a substance, cell viability was measured using MTT (G4000, Promega, USA) for KM12(Luc) cell and Cell titer glo (G7572, Promega, USA) for other cell lines. For adherent cells, cells were seeded at 5,000 cells/well in a 96-well plate and treated with a substance one day after cell seeding. For suspension cells, 10,000 cells/well were seeded and the substance was treated after 4 h stabilization of cells. The substance was treated at 10 points of 1:3 serial dilution (0–100 µmol/L) for 72 h. For MTT assay, 15 µL dye solution was added to each well and incubated 4 h at 37°C. 100 µL of solubilization solution was added and followed 1 hr incubation. Absorbance at 570 nm of each well was recorded using EnVision microplate reader (Perkin Elmer). For Cell titer glo assay, Cell titer glo reagent was treated in each well and measured the luminescence by EnVision microplate reader (Perkin Elmer). Viable cells in each well were normalized by using 0.5% DMSO-treated wells (100%). The inhibitor dose−response curve was fitted and GI50 values were calculated using Prism 7.0 software (GraphPad). All assays were performed in duplicate and the standard deviation (SD) was determined from two independent experiments. KM12(Luc) was purchased from the JCRB cell bank. KM12 (Luc) was used within 6 months after purchase and the DNA profiles were confirmed using a short tandem repeat (STR) analysis by the Korean Cell Line Bank. KM12(Luc) cells were maintained in DMEM supplemented with 10% FBS and antibiotics. Parental Ba/F3 cells were purchased from DSMZ and were grown in RPMI1640 supplemented with 10% FBS and antibiotics in the presence of IL3, Transformed Ba/F3 cell lines were grown in the same media without IL3. Cells used in this study were negative for mycoplasma contamination. AN3-CA, HEC1A, U138, 8505C, MKN28, MKN45, A172, A375, Capan-1 HeLa, HEP3B, MCF-7 and MIA-paca-2 cells were maintained in DMEM (Welgene, Korea) supplemented with 10% FBS and antibiotics (Welgene, Korea). Otherwise, all cells were maintained in RPMI (Welgene, Korea) supplemented with 10% FBS and antibiotics (Welgene, Korea). To identify AZD4547 sensitive cell lines other than FGFR-mutant driven cancer cells, GI50 values were determined for AZD4547 against 64 different cancer cell lines, including AN3-CA used as a positive control ( Figure 1A and Table S1 ). […] Also, inhibitory activity of AZD4547 against DDR1 or FLT3 allows suppression of proliferation of U-2-OS and MV4-11 ([43]). Therefore, our attention focused on the inhibitory activity of AZD4547 against KM12(Luc) cell lines which have the TPM3-NTRK1 fusion gene. To exclude the possibility that the anti-proliferation activity of AZD4547 against KM12(Luc) is a common characteristic of FGFR inhibitors, we determined if BGJ398, a representative FGFR inhibitor, is also capable of suppressing proliferation of KM12(Luc) cells ( Figure 1B ).

MKN28 = details: Homo sapiens, MKN-28, 72 h, read-out: GI50 (µM) a
Experimental: as §1

LNCaP = details: Homo sapiens, LNCaP, 72 h, read-out: GI50 (µM) a
Experimental: as §1

HCT15 = details: Homo sapiens, HCT-15, 72 h, read-out: GI50 (µM) a
Experimental: as §1

A549 = details: Homo sapiens, A549, 72 h, read-out: GI50 (µM) a
Experimental: as §1

NCI-H1666 = details: Homo sapiens, NCI-H1666, 72 h, read-out: GI50 (µM) a
Experimental: as §1

NCI-H2087 = details: Homo sapiens, NCI-H2087, 72 h, read-out: GI50 (µM) a
Experimental: as §1

HCT-116 = details: Homo sapiens, HCT-116, 72 h, read-out: GI50 (µM) a
Experimental: as §1

MCF7 = details: Homo sapiens, MCF7, 72 h, read-out: GI50 (µM) a
Experimental: as §1

HCC-78 = details: Homo sapiens, HCC78, 72 h, read-out: GI50 (µM) a
Experimental: as §1

U-87-MG = details: Homo sapiens, U-87 MG, 72 h, read-out: GI50 (µM) a
Experimental: as §1

8505C = details: Homo sapiens, 8505C, 72 h, read-out: GI50 (µM) a
Experimental: as §1

COc1cc(CCc2cc(NC(=O)c3ccc(N4C[C@@H](C)N[C@@H](C)C4)cc3)n[nH]2)cc(OC)c1 [AZD4547] gave a GI50 (HTH-7) of 6.44 µM, a GI50 (MKN28) of 10.9 µM and a GI50 (LNCaP) of 22.7 µM. It also gave a GI50 (HCT15) of 15.8 µM, a GI50 (A549) of 11.6 µM and a GI50 (NCI-H1666) of 10.8 µM. It also gave a GI50 (NCI-H2087) of 27.4 µM, a GI50 (HCT-116) of 7.13 µM and a GI50 (MCF7) of 7.84 µM. The GI50 (HCC-78) was 7.17 µM, the GI50 (U-87-MG) was 8.94 µM and the GI50 (8505C) was 14.7 µM.
